Here are results for 24 compounds from patent US20230067159A1, “ROR-GAMMA-T INHIBITOR, PREPARATION METHOD THEREOF AND USE THEREOF” (priority 2020, published 2023).

The target in this assay is T1, RORγ (Homo sapiens, UniProt P51449).
T1 construct: The concentration of B-RORγ LBD was 40 nM
T1 sequence (P51449 269-508 limits assumed): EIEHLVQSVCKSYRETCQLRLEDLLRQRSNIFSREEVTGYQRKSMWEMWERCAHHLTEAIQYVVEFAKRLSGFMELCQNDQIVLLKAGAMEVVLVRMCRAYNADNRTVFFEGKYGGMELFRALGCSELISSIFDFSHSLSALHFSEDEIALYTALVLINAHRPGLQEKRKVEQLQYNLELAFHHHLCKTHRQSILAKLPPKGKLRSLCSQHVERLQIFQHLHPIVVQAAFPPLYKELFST
The assay can be described thus: Fluorescence resonance energy transfer (FRET) test, B-RORγ LBD / Biotin-SRC1. In kind it is biochemical. The method, then:
Biological Example 1 Fluorescence Resonance Energy Transfer (FRET) Test
(1) Preparation of RORγ Test Buffer and 10 mM of DTT
100 mL of 1× Basic test buffer (HEPES (pH 7.4), 100 mM NaCl, 0.01% BSA) was prepared, and 154.25 mg of DTT was added. The mixture was well mixed.
(2) Preparation of Compound with Gradient Concentration
a. Standard compound was prepared: Standard compound was diluted with 100% DMSO to 2.5 mM, then diluted 3-fold with 11 serial dilutions to a final concentration of […];
b. Test compound was prepared referring to the standard compound.
(3) Preparation of 1× Protein Solution Mixture
a. Preparation of the desired amount of 2× B-RORγ LBD/SA-APC protein mixture: The concentration of B-RORγ LBD was 40 nM, and the concentration of SA-APC was 20 nM. They were mixed by gently inversion, and incubated at room temperature for 15 minutes. Then 400 nM of biotin was added. The mixture was mixed by gently inversion, and incubated at room temperature for 10 minutes;
b. Preparation of the desired amount of 2× Biotin-SRC1/SA-eu protein mixture: The concentration of Bioin-SRC1 was 40 nM, and the concentration of SA-eu was 20 nM. They were mixed by gently inversion, and incubated at room temperature for 15 minutes. Then 200 nM of biotin was added. The mixture was mixed by gently inversion, and incubated at room temperature for 10 minutes;
c. The protein mixtures prepared in step a and step b were mixed at a ratio of 1:1, and incubated at room temperature for 5 minutes;
d. 25 μL of the mixture from step c was added to the 384-well plate containing the test compound;
e. The mixture was centrifuged at 1000 rpm for one minute;
f. The mixture was incubated for 1 hour at room temperature.
(4) Data Collection and Calculation
After incubation at room temperature for 1 hour, the fluorescence values at 665 nm and 615 nm were measured with an EnVision plate reader, and the inhibition rate was calculated.
Inhibition rate %)=[(X−Min)/(Max−Min)]×100%
X is the fluorescence value ratio of “665/615” of the test compound; Min is the average value of “665/615” of the DMSO blank control; Max is the average value of “665/615” of the 10 μM SRC.

As a reminder, the IC50 is the concentration that inhibits the measured activity by half. In turn, `CCS(=O)(=O)c1ccc([C@H](CO)NC(=O)c2ccc(N3C[C@H](Oc4ccc(C(F)(F)F)cc4)C[C@H]3CN3CCOC[C@@H]3C)cc2)cc1` [Example 35, N—((R)-1-(4-(ethylsulfonyl)phenyl)-2-hydroxyethyl)-4-((2S,4R)-2-(((S)-3-methylmorpholinyl)methyl)-4-(4-(trifluoromethyl)phenoxy)pyrrolidin-1-yl)benzamide] showed an IC50 of 135 nM. That is a sub-micromolar value.

Turning to `CCOC[C@@H]1CC(Oc2ccc(C(F)(F)F)cc2)CN1c1ccc(C(=O)N[C@@H](CO)c2ccc(S(=O)(=O)CC)cc2)cc1` (stereo partly drawn) [Example 20], it took 14.1 nM to reach half-maximal inhibition (IC50).

`CCS(=O)(=O)c1ccc([C@H](CO)NC(=O)c2ccc(N3CCC(Cc4ccc(C(F)(F)F)cc4)C3)cc2)cc1` (stereo partly drawn) [Example 6, N—((R)-1-(4-(ethylsulfonyl)phenyl)-2-hydroxyethyl)-4-(3-(4-(trifluoromethyl)benzyl)pyrrolidin-1-yl)benzamide]: the IC50 was found to be 9 nM.

`CCS(=O)(=O)c1ccc([C@H](CO)NC(=O)c2ccc(N3CCC(Oc4ccc(C(F)(F)F)cc4)C3)cc2)cc1` (stereo partly drawn) [Example 12, N—((R)-1-(4-(ethylsulfonyl)phenyl)-2-hydroxyethyl)-4-(3-(4-(trifluoromethyl)phenoxy)pyrrolidin-1-yl)benzamide]: the concentration for half-maximal inhibition (IC50) stood at 24 nM.

The compound `CCS(=O)(=O)c1ccc(CNC(=O)c2cnc(N3C[C@@H](Oc4ccc(OC(F)(F)F)cn4)C[C@H]3COC(F)F)c(F)c2)cc1` [Example 111] gave a half-inhibitory concentration (IC50) of 5 nM.

`CCS(=O)(=O)c1ccc([C@H](CO)NC(=O)c2ccc(N3C[C@@H](Oc4ccc(C(F)(F)F)cc4)C[C@H]3COC(F)(F)F)nc2)cc1` [Example 94, N—((R)-1-(4-(ethylsulfonyl)phenyl)-2-hydroxyethyl)-6-((2S,4S)-2-((trifluoromethoxy)methyl)-4-(4-(trifluoromethyl)phenoxy)pyrrolidin-1-yl)nicotinamide] yielded a half-inhibitory concentration (IC50) of 8 nM.

As for `CCS(=O)(=O)c1ccc([C@H](CO)NC(=O)c2ccc(N3C[C@H](Oc4ccc(C(F)(F)F)cc4)C[C@H]3COCCF)cc2)cc1` [Example 29, N—((R)-1-(4-(ethylsulfonyl)phenyl)-2-hydroxyethyl)-4-((2S,4R)-2-((2-fluoroethoxy)methyl)-4-(4-(trifluoromethyl)phenoxy)pyrrolidin-1-yl)benzamide], it took 10.4 nM to reach half-maximal inhibition (IC50).

On to `CCS(=O)(=O)c1ccc(CC(=O)Nc2ccc(N3CCC(Cc4ccc(C(F)(F)F)cc4)C3)cc2)cc1` (stereo not drawn) [Example 1, 2-(4-(Ethylsulfonyl)phenyl)-N-(4-(3-(4-(trifluoromethyl)benzyl)pyrrolidin-1-yl)phenyl) acetamide], for which the IC50 was determined as 12 nM.

For `CCS(=O)(=O)c1ccc([C@H](CO)NC(=O)c2ccc(N3C[C@@H](Oc4ccc5c(c4)OC(F)(F)O5)C[C@H]3COC(F)F)cc2)cc1` [Example 82, 4-((2S,4S)-4-((2,2-difluorobenzo[d][1,3]dioxol-5-yl)oxy)-2-((difluoromethoxy)methyl)pyrrolidin-1-yl)-N—((R)-1-(4-(ethylsulfonyl)phenyl)-2-hydroxyethyl)benzamide], the IC50 turned out to be 4 nM.

In turn, `CCC(F)(F)OC[C@@H]1C[C@H](Oc2ccc(C(F)(F)F)cc2)CN1c1ncc(C(=O)N[C@@H](CO)c2ccc(S(=O)(=O)CC)cn2)cn1` [Example 75] displayed an IC50 of 12.1 nM.

For `CCS(=O)(=O)c1ccc([C@H](CO)NC(=O)c2ccc(N3C[C@H](Oc4ccc(C(F)(F)F)cc4)C[C@H]3CF)cc2)cc1` [Example 24, N—((R)-1-(4-(ethylsulfonyl)phenyl)-2-hydroxyethyl)-4-((2S,4R)-2-(fluoromethyl)-4-(4-(trifluoromethyl)phenoxy)pyrrolidin-1-yl)benzamide], the 50% inhibitory concentration (IC50) stood at 32.8 nM.

Compound `CCS(=O)(=O)c1ccc([C@H](CO)NC(=O)c2ccc(N3C[C@@H](Oc4ccc(C(F)(F)F)cc4)C[C@H]3COC(F)F)c(OC)c2)cc1` [Example 89] displayed an IC50 of 26 nM.

`CCC(F)(F)OC[C@@H]1C[C@H](Oc2ccc(C(F)(F)F)cc2)CN1c1ccc(C(=O)N[C@@H](CO)c2ccc(S(=O)(=O)CC)cc2)cc1` [Example 45]: the IC50 was found to be 17 nM.

Compound `CCC(F)(F)OC[C@@H]1C[C@H](Oc2ccc(C(F)(F)F)cc2)CN1c1ccc(C(=O)N[C@@H](CO)c2ccc(S(=O)(=O)CC)cn2)cc1` [Example 73] gave an IC50 of 13 nM.

With `CCS(=O)(=O)c1ccc([C@H](CO)NC(=O)c2ccc(N3C[C@H](Oc4ccc(C(F)(F)F)cc4)C[C@H]3COC3CCOCC3)cc2)cc1` [Example 34, N—((R)-1-(4-(ethylsulfonyl)phenyl)-2-hydroxyethyl)-4-((2S,4R)-2-(((tetrahydro-2H-pyran-4-yl)oxy)methyl)-4-(4-(trifluoromethyl)phenoxy)pyrrolidin-1-yl)benzamide], the IC50 amounted to 133 nM.

In the case of `CCS(=O)(=O)c1ccc([C@H](CO)NC(=O)c2ccc(N3C[C@@H](Oc4ccc(C(F)(F)F)cc4)C[C@H]3COC(F)F)cc2)nc1` [Example 69], 4 nM corresponded to half-maximal inhibition (IC50).

The compound `CCS(=O)(=O)c1ccc([C@H](CCO)NC(=O)c2ccc(N3CC(Oc4ccc(OC(F)(F)F)cc4)C[C@H]3COC(F)(F)F)cc2)cc1` (stereo in doubt) [Example 118, N—((S)-1-(4-(ethylsulfonyl)phenyl)-3-hydroxypropyl)-4-((2S,4S)-2-((trifluoromethoxy)methyl)-4-(4-(trifluoromethoxy)phenoxy)pyrrolidin-1-yl)benzamide] registered an IC50 of 8 nM.

Compound `CCS(=O)(=O)c1ccc(CNC(=O)c2ccc(N3C[C@@H](Oc4ccc(OC(F)(F)F)cn4)C[C@H]3COC(F)F)cc2)nc1` [Example 112] returned an IC50 of 8 nM.

As for `CCS(=O)(=O)c1ccc(CNC(=O)c2cnc(N3C[C@@H](Oc4ccc(Cl)cn4)C[C@H]3COC(F)F)c(F)c2)nc1` [Example 113, 6-((2S,4S)-4-((5-chloropyridin-2-yl)oxy)-2-((difluoromethoxy)methyl)pyrrolidin-1-yl)-N-((5-(ethylsulfonyl)pyridin-2-yl)methyl)-5-fluoronicotinamide], the concentration for half-maximal inhibition (IC50) stood at 6.2 nM.

In turn, `CCC(F)(F)OC[C@@H]1C[C@H](Oc2ccc(C(F)(F)F)cc2)CN1c1ccc(C(=O)N[C@@H](CO)c2ccc(S(=O)(=O)CC)cc2)cn1` [Example 55] yielded an IC50 of 9 nM. This IC50 and that of the compound before are within 1.5-fold of each other.

Regarding `CCS(=O)(=O)c1ccc([C@H](CO)NC(=O)c2ccc(N3C[C@H](Oc4ccc(C(F)(F)F)cc4)C[C@H]3CO[C@H]3CCOC3)cc2)cc1` [Example 33, N—((R)-1-(4-(ethylsulfonyl)phenyl)-2-hydroxyethyl)-4-((2S,4R)-2-((((S)-tetrahydrofuran-3-yl)oxy)methyl)-4-(4-(trifluoromethyl)phenoxy)pyrrolidin-1-yl)benzamide], the half-inhibitory concentration (IC50) stood at 132 nM.

The compound `CCS(=O)(=O)c1ccc(CC(=O)Nc2ccc(C3CN(Cc4ccc(C(F)(F)F)cc4)CC3C)cc2)cc1` (stereo not drawn) [Example 5, 2-(4-(Ethylsulfonyl)phenyl)-N-(4-(4-methyl-1-(4-(trifluoromethyl)benzyl)pyrrolidin-3-yl)phenyl)acetamide] showed a half-maximal inhibitory concentration (IC50) of 47 nM. This IC50 lies about 2.8-fold lower than the previous one.

Compound `CCC(F)(F)OC[C@@H]1C[C@H](Oc2ccc(C(F)(F)F)cc2)CN1c1ncc(C(=O)N[C@@H](CO)c2ccc(S(=O)(=O)CC)cc2)cn1` [Example 67] returned an IC50 of 8 nM.

Consider `CCS(=O)(=O)c1ccc([C@H](CO)NC(=O)c2ccc(N3C[C@H](Oc4ccc(C(F)(F)F)cc4)C[C@H]3COC(F)F)nc2)cc1` [Example 52], for which the IC50 is 49.9 nM. This IC50 is about 6.2-fold higher than that of the compound before.
